# In patent US20240368135A1 (VERTEX PHARMACEUTICALS INCORPORATED, priority 2021, published 2024):
# Target: human NaV 1.8 (Homo sapiens, UniProt Q9Y5Y9)
# Assay: E-VIPR assay detecting and measuring NaV inhibition properties
# Format: cell-based
# Details: HEK cells expressing truncated human NaV 1.8; in the presence of human serum (compound numbers followed by *); read-out: IC50 in the E-VIPR Assay, performed in the presence of human serum
# How it was run: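 HEK cells expressing truncated, fully active human NaV1.8, with KIR2.1 BacMam co-transduction, were loaded with CC2-DMPE/DiSBAC6(3) voltage-sensing dyes for 20 min at room temperature. Compounds were tested in 11-point 3-fold dilutions (300 nM top final), optionally with 25% human serum, under electrical stimulation with FRET read-out.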
# Chain of human NaV 1.8 (Q9Y5Y9 126-399 limits assumed): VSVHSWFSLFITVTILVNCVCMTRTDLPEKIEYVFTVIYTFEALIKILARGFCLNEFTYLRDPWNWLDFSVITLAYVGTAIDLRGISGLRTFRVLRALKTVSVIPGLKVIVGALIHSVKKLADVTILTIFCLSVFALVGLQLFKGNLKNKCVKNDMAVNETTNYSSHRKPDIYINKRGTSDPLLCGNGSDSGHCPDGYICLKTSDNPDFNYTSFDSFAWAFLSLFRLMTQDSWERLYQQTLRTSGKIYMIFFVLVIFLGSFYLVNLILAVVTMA
# Chain of human NaV 1.8 (Q9Y5Y9 660-890 limits assumed): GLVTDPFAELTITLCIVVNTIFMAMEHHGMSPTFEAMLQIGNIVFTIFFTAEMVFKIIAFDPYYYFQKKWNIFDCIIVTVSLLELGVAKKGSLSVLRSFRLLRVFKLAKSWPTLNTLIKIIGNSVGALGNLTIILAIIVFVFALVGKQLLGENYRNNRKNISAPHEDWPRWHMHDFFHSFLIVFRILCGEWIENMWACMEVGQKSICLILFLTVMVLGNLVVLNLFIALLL
# Chain of human NaV 1.8 (Q9Y5Y9 1148-1722 limits assumed): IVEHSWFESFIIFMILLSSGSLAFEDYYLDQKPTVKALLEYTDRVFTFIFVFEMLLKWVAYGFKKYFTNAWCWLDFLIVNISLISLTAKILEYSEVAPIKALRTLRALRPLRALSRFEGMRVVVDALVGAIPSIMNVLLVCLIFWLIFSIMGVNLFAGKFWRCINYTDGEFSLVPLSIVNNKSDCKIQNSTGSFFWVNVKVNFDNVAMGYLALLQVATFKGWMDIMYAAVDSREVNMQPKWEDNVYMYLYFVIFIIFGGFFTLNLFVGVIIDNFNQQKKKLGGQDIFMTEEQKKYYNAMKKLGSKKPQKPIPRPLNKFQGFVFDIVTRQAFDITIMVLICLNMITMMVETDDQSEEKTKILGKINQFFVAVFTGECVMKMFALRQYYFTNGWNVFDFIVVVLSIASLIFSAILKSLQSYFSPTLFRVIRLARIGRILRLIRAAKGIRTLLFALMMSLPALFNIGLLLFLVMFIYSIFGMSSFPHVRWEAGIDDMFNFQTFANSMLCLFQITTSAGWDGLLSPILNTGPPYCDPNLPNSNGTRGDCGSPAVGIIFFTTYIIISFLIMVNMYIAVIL
row,SMILES,IC50 [nM]
1,"C[C@@H]1[C@H](c2ccc(F)c(F)c2OC(F)F)[C@@H](C(=O)Nc2ccnc(CCO)c2)O[C@]1(C)C(F)(F)F (single isomer, unassigned) [Compound 457]",≥ 1000

# Same assay, conditions: HEK cells expressing truncated human NaV 1.8; no human serum; read-out: IC50 in the E-VIPR Assay
row,SMILES,IC50 [nM]
1,"COCC(c1cc(NC(=O)[C@@H]2O[C@@](C)(C(F)(F)F)[C@@H](C)[C@H]2c2ccc(F)c(F)c2OC)ccn1)N(C)C (single isomer, unassigned) [Compound 424, rel-(2R*,3S*,4S*,5R*)-3-(3,4-difluoro-2-methoxyphenyl)-N-(2-(1-(dimethylamino)-2-methoxyethyl)pyridin-4-yl)-4,5-dimethyl-5-(trifluoromethyl)-tetrahydrofuran-2-carboxamide]",< 10
2,"COc1c([C@H]2[C@H](C(=O)Nc3cc(C(N)C(C)(C)O)ncc3F)O[C@@](C)(C(F)(F)F)[C@H]2C)ccc(F)c1F (single isomer, unassigned) [Compound 428, rel-(2R*,3S*,4S*,5R*)-N-(2-(1-amino-2-hydroxy-2-methylpropyl)-5-fluoropyridin-4-yl)-3-(3,4-difluoro-2-methoxyphenyl)-4,5-dimethyl-5-(trifluoromethyl)-tetrahydrofuran-2-carboxamide]",< 10
3,"CNS(=O)(=O)c1cc(NC(=O)C2OC(C)(C(F)(F)F)C(C)C2c2ccc(F)c(F)c2OC)ccn1 (single isomer, unassigned) [Compound 455, 3-(3,4-difluoro-2-methoxy-phenyl)-4,5-dimethyl-N-[2-(methylsulfamoyl)-4-pyridyl]-5-(trifluoromethyl)tetrahydrofuran-2-carboxamide]",100 to 1000
4,"C[C@H]1[C@@H](c2ccc(F)c(F)c2OC(F)F)[C@H](C(=O)Nc2ccnc(CCO)c2)O[C@@]1(C)C(F)(F)F (single isomer, unassigned) [Compound 458]",< 10
5,"C[C@@H]1[C@H](c2ccc(F)c(F)c2OC(F)F)[C@@H](C(=O)Nc2ccnc(CC(C)(C)O)c2)O[C@]1(C)C(F)(F)F (single isomer, unassigned) [Compound 463]",≥ 1000
6,"C[C@H]1[C@@H](c2ccc(F)c(F)c2OC(F)F)[C@H](C(=O)Nc2ccnc(CC(C)(C)O)c2)O[C@@]1(C)C(F)(F)F (single isomer, unassigned) [Compound 464]",10 to 100
7,"COc1c([C@H]2[C@H](C(=O)Nc3ccnc(N4C[C@H]5C[C@H](N5)C4=O)c3)O[C@@](C)(C(F)(F)F)[C@H]2C)ccc(F)c1F (single isomer, unassigned) [Compound 491, rel-(2R*,3S*,4S*,5R*)-3-(3,4-difluoro-2-methoxyphenyl)-4,5-dimethyl-N-(2-((1S,5R)-2-oxo-3,6-diazabicyclo[3.1.1]heptan-3-yl)pyridin-4-yl)-5-(trifluoromethyl)tetrahydrofuran-2-carboxamide]",10 to 100
8,"COc1c([C@H]2[C@H](C(=O)Nc3ccnc(N4C[C@@H]5C[C@@H](N5)C4=O)c3)O[C@@](C)(C(F)(F)F)[C@H]2C)ccc(F)c1F (single isomer, unassigned) [Compound 492, rel-(2R*,3S*,4S*,5R*)-3-(3,4-difluoro-2-methoxyphenyl)-4,5-dimethyl-N-(2-((1R,5S)-2-oxo-3,6-diazabicyclo[3.1.1]heptan-3-yl)pyridin-4-yl)-5-(trifluoromethyl)tetrahydrofuran-2-carboxamide]",10 to 100
9,"COc1c([C@H]2[C@H](C(=O)Nc3ccnc(N4C[C@H]5CC[C@H](N5)C4=O)c3)O[C@@](C)(C(F)(F)F)[C@H]2C)ccc(F)c1F (single isomer, unassigned) [Compound 493, rel-(2R*,3S*,4S*,5R*)-3-(3,4-difluoro-2-methoxyphenyl)-4,5-dimethyl-N-(2-((1S,5R)-2-oxo-3,8-diazabicyclo[3.2.1]octan-3-yl)pyridin-4-yl)-5-(trifluoromethyl)tetrahydrofuran-2-carboxamide]",10 to 100
10,"COc1c([C@H]2[C@H](C(=O)Nc3ccnc(N4C[C@@H]5CC[C@@H](N5)C4=O)c3)O[C@@](C)(C(F)(F)F)[C@H]2C)ccc(F)c1F (single isomer, unassigned) [Compound 494, rel-(2R*,3S*,4S*,5R*)-3-(3,4-difluoro-2-methoxyphenyl)-4,5-dimethyl-N-(2-((1R,5S)-2-oxo-3,8-diazabicyclo[3.2.1]octan-3-yl)pyridin-4-yl)-5-(trifluoromethyl)tetrahydrofuran-2-carboxamide]",10 to 100
11,"COc1c([C@H]2[C@H](C(=O)Nc3ccnc(N4CC(N)CC4=O)c3)O[C@@](C)(C(F)(F)F)[C@H]2C)ccc(F)c1F (single isomer, unassigned) [Compound 495, rel-(2R*,3S*,4S*,5R*)-N-(2-(4-amino-2-oxopyrrolidin-1-yl)pyridin-4-yl)-3-(3,4-difluoro-2-methoxyphenyl)-4,5-dimethyl-5-(trifluoromethyl)tetrahydrofuran-2-carboxamide]",< 10
12,"COc1c([C@H]2[C@H](C(=O)Nc3ccnc(N4CC(N)CC4=O)c3)O[C@@](C)(C(F)(F)F)[C@H]2C)ccc(F)c1F (single isomer, unassigned) [Compound 496, rel-(2R*,3S*,4S*,5R*)-N-(2-(4-amino-2-oxopyrrolidin-1-yl)pyridin-4-yl)-3-(3,4-difluoro-2-methoxyphenyl)-4,5-dimethyl-5-(trifluoromethyl)tetrahydrofuran-2-carboxamide]",10 to 100
13,"COc1c([C@H]2[C@H](C(=O)Nc3ccnc(N4CCC(N)C4=O)c3)O[C@@](C)(C(F)(F)F)[C@H]2C)ccc(F)c1F (single isomer, unassigned) [Compound 497, rel-(2R*,3S*,4S*,5R*)-N-(2-(3-amino-2-oxopyrrolidin-1-yl)pyridin-4-yl)-3-(3,4-difluoro-2-methoxyphenyl)-4,5-dimethyl-5-(trifluoromethyl)tetrahydrofuran-2-carboxamide]",10 to 100
14,"CNC1CC(=O)N(c2cc(NC(=O)[C@@H]3O[C@@](C)(C(F)(F)F)[C@@H](C)[C@H]3c3ccc(F)c(F)c3OC)ccn2)C1 (single isomer, unassigned) [Compound 499, rel-(2R*,3S*,4S*,5R*)-3-(3,4-difluoro-2-methoxyphenyl)-4,5-dimethyl-N-(2-(4-(methylamino)-2-oxopyrrolidin-1-yl)pyridin-4-yl)-5-(trifluoromethyl)tetrahydrofuran-2-carboxamide]",10 to 100

# The remaining lines, values ahead:
row,IC50 [nM],SMILES
1,100 to 1000,"COCC(c1ccc(NC(=O)[C@@H]2O[C@@](C)(C(F)(F)F)[C@@H](C)[C@H]2c2ccc(F)c(F)c2OC)cn1)N(C)C (single isomer, unassigned) [Compound 426, rel-(2R*,3S*,4S*,5R*)-3-(3,4-difluoro-2-methoxyphenyl)-N-(6-(1-(dimethylamino)-2-methoxyethyl)pyridin-3-yl)-4,5-dimethyl-5-(trifluoromethyl)-tetrahydrofuran-2-carboxamide]"
2,100 to 1000,"COc1c([C@H]2[C@H](C(=O)Nc3cnc4c(c3)CCC4O)O[C@@](C)(C(F)(F)F)[C@H]2C)ccc(F)c1F (single isomer, unassigned) [Compound 433, rel-(2R*,3S*,4S*,5R*)-3-(3,4-difluoro-2-methoxyphenyl)-N-(7-hydroxy-6,7-dihydro-5H-cyclopenta[b]pyridin-3-yl)-4,5-dimethyl-5-(trifluoromethyl)tetrahydrofuran-2-carboxamide]"
3,100 to 1000,"COc1c([C@H]2[C@H](C(=O)Nc3cnc4c(c3)C(O)CC4)O[C@@](C)(C(F)(F)F)[C@H]2C)ccc(F)c1F (single isomer, unassigned) [Compound 434, rel-(2R*,3S*,4S*,5R*)-3-(3,4-difluoro-2-methoxyphenyl)-N-(5-hydroxy-6,7-dihydro-5H-cyclopenta[b]pyridin-3-yl)-4,5-dimethyl-5-(trifluoromethyl)tetrahydrofuran-2-carboxamide]"
4,10 to 100,"COc1c([C@H]2[C@H](C(=O)Nc3ccc(C(F)CO)nc3)O[C@@](C)(C(F)(F)F)[C@H]2C)ccc(F)c1F (single isomer, unassigned) [Compound 438, rel-(2R*,3S*,4S*,5R*)-3-(3,4-difluoro-2-methoxyphenyl)-N-(6-(1-fluoro-2-hydroxyethyl)pyridin-3-yl)-4,5-dimethyl-5-(trifluoromethyl)tetrahydrofuran-2-carboxamide]"
5,< 10,"COc1c([C@H]2[C@H](C(=O)Nc3ccnc(C(F)CO)c3)O[C@@](C)(C(F)(F)F)[C@H]2C)ccc(F)c1F (single isomer, unassigned) [Compound 439, rel-(2R*,3S*,4S*,5R*)-3-(3,4-difluoro-2-methoxyphenyl)-N-(2-(1-fluoro-2-hydroxyethyl)pyridin-4-yl)-4,5-dimethyl-5-(trifluoromethyl)tetrahydrofuran-2-carboxamide]"
6,< 10,"CNS(=O)(=O)c1cc(NC(=O)C2OC(C)(C(F)(F)F)C(C)C2c2ccc(F)c(F)c2OC)ccn1 (single isomer, unassigned) [Compound 456, 3-(3,4-difluoro-2-methoxy-phenyl)-4,5-dimethyl-N-[2-(methylsulfamoyl)-4-pyridyl]-5-(trifluoromethyl)tetrahydrofuran-2-carboxamide]"
7,≥ 1000,"C[C@@H]1[C@H](c2ccc(F)c(F)c2OC(F)F)[C@@H](C(=O)Nc2ccc(CCO)nc2)O[C@]1(C)C(F)(F)F (single isomer, unassigned) [Compound 459]"
8,10 to 100,"C[C@H]1[C@@H](c2ccc(F)c(F)c2OC(F)F)[C@H](C(=O)Nc2ccc(CCO)nc2)O[C@@]1(C)C(F)(F)F (single isomer, unassigned) [Compound 460]"
9,≥ 1000,"C[C@@H]1[C@H](c2ccc(F)c(F)c2OC(F)F)[C@@H](C(=O)Nc2ccc(CC(C)(C)O)nc2)O[C@]1(C)C(F)(F)F (single isomer, unassigned) [Compound 461]"
10,100 to 1000,"C[C@H]1[C@@H](c2ccc(F)c(F)c2OC(F)F)[C@H](C(=O)Nc2ccc(CC(C)(C)O)nc2)O[C@@]1(C)C(F)(F)F (single isomer, unassigned) [Compound 462]"
